Assay results from the supplement of paper PMC13380429.
± gives the standard deviation of the averaged measurements.

Columns and labels:
Details in all cases: 72 h
Vero E6 [1] = assay: drug sensitivity score (DSS) for viability; higher = more toxic; extreme values may be limits of the assay
U2OS [2] = assay: as above
Caco-2 [3] = assay: as above
Calu-3 [4] = assay: as above
HepG2 [5] = assay: as above
Vero E6 [6] = assay: cell viability relative to DMSO; higher = less toxic
U2OS [7] = assay: as above
Caco-2 [8] = assay: as above
Calu-3 [9] = assay: as above
HepG2 [10] = assay: as above
Vero E6 [11] = assay: relative viability EC50 (midpoint between 100% and the lowest measured viability); higher = less toxic
U2OS [12] = assay: as above
Caco-2 [13] = assay: as above
Calu-3 [14] = assay: as above
HepG2 [15] = assay: as above

SMILES	drug sensitivity score (Vero E6 [1])	drug sensitivity score (U2OS [2])	drug sensitivity score (Caco-2 [3])	drug sensitivity score (Calu-3 [4])	drug sensitivity score (HepG2 [5])	cell viability (Vero E6 [6]; 1 nM)	cell viability (Vero E6 [6]; 10 nM)	cell viability (Vero E6 [6]; 100 nM)	cell viability (Vero E6 [6]; 1000 nM)	cell viability (Vero E6 [6]; 10000 nM)	cell viability (U2OS [7]; 1 nM)	cell viability (U2OS [7]; 10 nM)	cell viability (U2OS [7]; 100 nM)	cell viability (U2OS [7]; 1000 nM)	cell viability (U2OS [7]; 10000 nM)	cell viability (Caco-2 [8]; 1 nM)	cell viability (Caco-2 [8]; 10 nM)	cell viability (Caco-2 [8]; 100 nM)	cell viability (Caco-2 [8]; 1000 nM)	cell viability (Caco-2 [8]; 10000 nM)	cell viability (Calu-3 [9]; 1 nM)	cell viability (Calu-3 [9]; 10 nM)	cell viability (Calu-3 [9]; 100 nM)	cell viability (Calu-3 [9]; 1000 nM)	cell viability (Calu-3 [9]; 10000 nM)	cell viability (HepG2 [10]; 1 nM)	cell viability (HepG2 [10]; 10 nM)	cell viability (HepG2 [10]; 100 nM)	cell viability (HepG2 [10]; 1000 nM)	cell viability (HepG2 [10]; 10000 nM)	relative viability EC50 (Vero E6 [11])	relative viability EC50 (U2OS [12])	relative viability EC50 (Caco-2 [13])	relative viability EC50 (Calu-3 [14])	relative viability EC50 (HepG2 [15])
CC(O)(C(=O)Nc1ccc(S(=O)(=O)c2ccccc2)cc1)C(F)(F)F (stereo not given)	0	0	0	2.1	0	98.4%	93.1%	97.9%	89.6%	95.3%	99.2%	100%	97.4%	104%	102%	94.9%	90.6%	97%	107%	95.9%	101%	98.1%	99.8%	82.2%	89.1%	100%	90.8%	96.4%	102%	109%	> 10 µM	> 10 µM	> 10 µM	> 10 µM	> 10 µM
O=C(NCCN1CCC(n2c(=O)[nH]c3ccccc32)CC1)c1cc2cc(F)ccc2[nH]1 [FIPI]	0	0	0	0	0	95%	95.9%	99%	96.6%	103%	97%	94%	100%	97.4%	94.8%	95.7%	101%	100%	101%	106%	92.2%	101%	99.8%	98%	96.8%	90.7%	110%	98.2%	93.7%	91.1%	> 10 µM	> 10 µM	> 10 µM	> 10 µM	> 10 µM
COC(=O)c1c(C)[nH]c(C)c1C(=O)c1ccccc1Cc1ccccc1	0	0	0.3	0	0	100%	101%	98%	94.1%	99.8%	99.5%	103%	87.8%	102%	92.1%	98.6%	97.1%	98.1%	99.9%	84.8%	90.1%	106%	89.8%	108%	90.1%	99.2%	94.8%	109%	95.8%	104%	> 10 µM	> 10 µM	> 10 µM	> 10 µM	> 10 µM
CC(=O)NCCCS(=O)(=O)O [acamprosate]	0	0	0	0	0	102%	99.5%	106%	103%	103%	95.7%	99.3%	99.3%	102%	99.2%	109%	102%	101%	96.3%	114%	104%	102%	97.9%	105%	103%	111%	98.1%	94.5%	90.2%	110%	> 10 µM	> 10 µM	> 10 µM	> 10 µM	> 10 µM
C[C@]12C=CC(=O)C=C1CC[C@@H]1[C@@H]2CC[C@]2(C)OC(=O)CC[C@@H]12 [Testolactone]	0	0	0	0	0	98.5%	91.3%	94.9%	88.1%	96.8%	95.8%	98.2%	95.4%	102%	91.8%	94%	97.1%	87.1%	91.1%	93.8%	98.5%	97.3%	101%	99.5%	105%	66.7%	103%	93.1%	94.1%	111%	> 10 µM	> 10 µM	> 10 µM	> 10 µM	> 10 µM
CCCCC(CC)CNC(=N)NC(=N)NCCCCCCNC(=N)NC(=N)NCC(CC)CCCC (stereo not given) [alexidine]	3.1	6.8	5.4	0	11.2	108%	106%	93.3%	109%	32.8%	93.6%	91.8%	99.3%	91%	3.9%	94.6%	99.3%	105%	101%	1.2%	97.1%	105%	104%	103%	105%	106%	93.2%	105%	50.7%	6%	3.73 µM	2.39 µM	3.22 µM	> 10 µM	0.964 µM
CC(C)N(C[C@H]1O[C@@H](n2cnc3c(N)ncnc32)[C@H](O)[C@@H]1O)[C@H]1C[C@@H](CCc2nc3cc(C(C)(C)C)ccc3[nH]2)C1 [EPZ-5676]	0	0	0	0	0	106%	106%	98.9%	102%	106%	105%	97.5%	101%	102%	111%	90.7%	99.2%	100%	97.1%	101%	101%	102%	95.4%	104%	104%	106%	94.9%	89.7%	105%	108%	> 10 µM	> 10 µM	> 10 µM	> 10 µM	> 10 µM
CC(=O)O[C@]1(C(C)=O)CC[C@H]2[C@@H]3C=C(C)C4=CC(=O)CC[C@@H]4[C@H]3CC[C@@]21C [nomegestrol-acetate]	0	0	0	0	0	100%	96.3%	99.3%	98.6%	111%	99.8%	102%	102%	103%	101%	88.5%	97.3%	102%	91.6%	97.4%	99%	94.1%	87.7%	106%	108%	103%	97.1%	102%	106%	110%	> 10 µM	> 10 µM	> 10 µM	> 10 µM	> 10 µM
CC[C@H](CO)Nc1nc(NCc2ccc(-c3ccccn3)cc2)c2ncn(C(C)C)c2n1 [CR8-(R)]	19.9	17.9	14.3	14.6	27.5	90.2%	99.3%	85.8%	2.9%	9.3%	100%	93.3%	99.8%	0.2%	4.8%	101%	97.1%	86.5%	34.5%	34.1%	104%	80%	87%	31.3%	39.9%	88.7%	102%	17.2%	0.7%	8.8%	0.201 µM	0.315 µM	0.172 µM	0.184 µM	0.0531 µM
CC(C)[C@H](N)C(=O)OCC(CO)OCn1cnc2c(=O)nc(N)[nH]c21 (mixture of isomers) [valganciclovir]	0	0	0.3	0	0	99.3%	91.8%	103%	97.4%	97.4%	90.7%	102%	98.2%	104%	108%	94.3%	107%	103%	114%	80%	107%	101%	108%	104%	91.8%	97.9%	95%	97.3%	95.8%	90.5%	> 10 µM	> 10 µM	> 10 µM	> 10 µM	> 10 µM
C=C[C@@]1(C)CC(=O)[C@]2(O)[C@@]3(C)[C@@H](O)CCC(C)(C)[C@@H]3[C@H](O)[C@H](OC(C)=O)[C@@]2(C)O1 [colforsin]	0.4 ± 0.28	0	0	0	0	97.7 ± 6.5%	101 ± 14%	103 ± 4.5%	89.9 ± 3.5%	85.7 ± 4.3%	101 ± 1.1%	101 ± 5%	95.9 ± 0.28%	100 ± 1.4%	96.65 ± 0.64%	97.9 ± 2.7%	99.3 ± 1.3%	100 ± 3.5%	109 ± 6.7%	118 ± 10%	106 ± 14%	109 ± 11%	103 ± 3%	106 ± 2.1%	97.5 ± 7.2%	110 ± 8.1%	106 ± 3.4%	101 ± 3.2%	96.4 ± 4.8%	99.2 ± 3.2%	> 10 µM	> 10 µM	> 10 µM	> 10 µM	> 10 µM
C/C(=C\C(=O)Nc1ccccc1C(=O)O)c1ccc2ccccc2c1 [BIBR-1532]	0	0	0	0	0	105%	99.9%	97.5%	103%	105%	93.8%	96.9%	95.5%	93.3%	103%	94.1%	100%	103%	98%	95.8%	101%	102%	98.2%	108%	98%	97.6%	98%	94.9%	110%	118%	> 10 µM	> 10 µM	> 10 µM	> 10 µM	> 10 µM
Oc1ccc2c3c1O[C@H]1[C@@H](O)CC[C@@]4(O)[C@@H](C2)N(CC2CCC2)CC[C@]314 [nalbuphine]	0	0	0	0	0	99.9%	104%	95.3%	102%	96.5%	97.7%	96.5%	98.2%	92.4%	96.9%	102%	102%	101%	88.4%	98.6%	103%	95.2%	95.9%	117%	105%	107%	99.2%	110%	95.9%	91.4%	> 10 µM	> 10 µM	> 10 µM	> 10 µM	> 10 µM
Cc1cc(=O)[nH]c(=S)[nH]1 [methylthiouracil]	0	0	0	0	0	101%	92.6%	100%	92.1%	97.8%	103%	99%	98.7%	97.4%	97.3%	98.7%	96.6%	99.3%	96.3%	94.6%	106%	109%	83.8%	97.7%	96.6%	107%	108%	95.1%	95.3%	105%	> 10 µM	> 10 µM	> 10 µM	> 10 µM	> 10 µM
